Test results as given in US20240208896A1, “PRODRUGS OF KV7 CHANNEL OPENERS” (Xyzagen, Inc., priority 2021, published 2024).
In brackets after ≈: the same amount, converted by molar mass. Where two headings read alike, the source gives them in different places.

Experiments:
[1] = Pharmacokinetics of ezogabine prodrugs in rat (IV, IM, PO)
Experimental: (§1) Blood was diluted by 10% with these stabilizers.
(§2) Extraction of the molecules was conducted by taking a 50 uL aliquot of plasma and adding 200 uL of acetonitrile containing 200 ng/mL tolbutamide as the internal standard. Samples were precipitated in a 96 well plate, centrifuges and an aliquot transferred to a new plate, dried down under heat and nitrogen and then reconstituted in the initial mobile phase conditions of the LC-MS/MS method. […] A standard curve was prepared from 5000 ng/mL to 1 ng/mL for each analyte. Concentration data from the bioanalytical run was analyzed by Phoenix Winnonlin version 8 for noncompartmental PK analysis, plotting of concentration time curves and tabulation of PK parameters.
150 uL of blood were collected at predesignated time points. At completion of the study animals were asphyxiated by carbon dioxide gas and exsanguinated for euthanasia.

[2] = Pharmacokinetics of ezogabine prodrugs in mouse (SC, PO); conditions: male mice, PO 20 mg/kg, analyte Cmpd 1
Experimental: as §1
as §2, with “noncompartmental sparse sampling” for “noncompartmental”
Animals were asphyxiated by carbon dioxide gas, blood was collected by cardiac stick and they were euthanized by cervical dislocation.

[3] = patients receiving ezogabine (POTIGA); Potiga label; cited from earlier work
Human Kv7.2/7.3 = Human Kv7.2/7.3 (Homo sapiens, UniProt O43525+O43526); test: In vitro screen of Kv7.2/7.3 voltage gated potassium channels (FluxOR, FLIPR); type: cell-based
Chain of Human Kv7.2/7.3 (O43526 whole entry): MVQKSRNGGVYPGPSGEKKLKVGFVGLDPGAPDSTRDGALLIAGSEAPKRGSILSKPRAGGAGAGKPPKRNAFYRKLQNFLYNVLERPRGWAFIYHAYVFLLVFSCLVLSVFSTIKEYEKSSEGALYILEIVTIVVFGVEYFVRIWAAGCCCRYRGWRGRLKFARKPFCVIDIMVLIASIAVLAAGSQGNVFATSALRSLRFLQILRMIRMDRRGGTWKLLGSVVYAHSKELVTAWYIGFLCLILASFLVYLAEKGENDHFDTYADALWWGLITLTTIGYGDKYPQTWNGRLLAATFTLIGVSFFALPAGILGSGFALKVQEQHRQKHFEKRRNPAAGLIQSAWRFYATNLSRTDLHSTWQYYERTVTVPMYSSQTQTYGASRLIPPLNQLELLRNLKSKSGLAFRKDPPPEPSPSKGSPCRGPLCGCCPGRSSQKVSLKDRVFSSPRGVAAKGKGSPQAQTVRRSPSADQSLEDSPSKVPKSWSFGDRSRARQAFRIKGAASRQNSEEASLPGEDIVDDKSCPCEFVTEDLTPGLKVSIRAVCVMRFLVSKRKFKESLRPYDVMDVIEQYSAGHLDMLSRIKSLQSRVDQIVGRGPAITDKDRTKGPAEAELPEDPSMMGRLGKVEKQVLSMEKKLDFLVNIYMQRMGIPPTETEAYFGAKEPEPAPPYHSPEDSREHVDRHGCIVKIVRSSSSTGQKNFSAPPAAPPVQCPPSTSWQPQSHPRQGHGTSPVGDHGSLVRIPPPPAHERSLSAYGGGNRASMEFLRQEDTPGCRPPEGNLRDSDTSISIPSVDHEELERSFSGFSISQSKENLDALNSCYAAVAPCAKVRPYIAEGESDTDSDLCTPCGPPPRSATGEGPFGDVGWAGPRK
Chain of Human Kv7.2/7.3 (O43525 whole entry): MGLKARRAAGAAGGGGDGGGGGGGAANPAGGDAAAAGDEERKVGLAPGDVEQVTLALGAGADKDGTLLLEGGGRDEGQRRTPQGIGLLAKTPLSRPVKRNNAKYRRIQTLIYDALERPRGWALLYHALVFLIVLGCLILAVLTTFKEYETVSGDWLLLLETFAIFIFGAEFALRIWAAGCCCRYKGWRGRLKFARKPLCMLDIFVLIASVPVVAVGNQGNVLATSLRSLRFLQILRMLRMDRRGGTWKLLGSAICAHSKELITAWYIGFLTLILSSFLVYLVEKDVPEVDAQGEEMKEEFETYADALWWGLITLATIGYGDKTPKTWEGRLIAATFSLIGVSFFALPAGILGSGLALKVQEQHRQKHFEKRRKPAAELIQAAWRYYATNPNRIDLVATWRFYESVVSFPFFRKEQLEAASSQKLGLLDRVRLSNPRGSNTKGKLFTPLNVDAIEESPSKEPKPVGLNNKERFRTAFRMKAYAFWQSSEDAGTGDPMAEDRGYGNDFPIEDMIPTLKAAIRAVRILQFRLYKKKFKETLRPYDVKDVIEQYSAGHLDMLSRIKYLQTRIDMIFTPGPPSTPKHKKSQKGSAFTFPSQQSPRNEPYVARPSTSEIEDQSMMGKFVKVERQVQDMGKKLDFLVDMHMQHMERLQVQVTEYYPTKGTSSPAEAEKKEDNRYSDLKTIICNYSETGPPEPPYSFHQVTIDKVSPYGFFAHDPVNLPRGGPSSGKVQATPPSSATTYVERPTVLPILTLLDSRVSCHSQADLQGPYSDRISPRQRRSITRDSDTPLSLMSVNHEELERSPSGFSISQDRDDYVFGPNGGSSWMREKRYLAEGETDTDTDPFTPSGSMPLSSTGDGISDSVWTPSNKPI
Experimental: Human Kv7.2/7.3 cells are harvested, counted and seeded in black, clear-bottomed 96 well plates at a density of 50,000 cells per well in 100 μl volume and incubated overnight. The following day, media was removed and 40 μl of loading buffer (4.895 mL HBSS:HEPES, 50 μL probenecid, 50 μL power load, 5 μl FluxOR reagent) was added and incubated at room temperature for 30 minutes. After incubation loading buffer was removed and 40 μl of assay buffer added (4.45 ml HBSS:HEPES, 500 μl FluxOR assay buffer and 50 μL probenecid) and incubated for 10 minutes.

[4] = type: physicochemical; conditions: for % Conversion to dimer / Concentration of dimer: 8 mg/mL in SGF, 38° C.
From the text: The structure of the dimer is presented.

[5] = known value, cited from earlier work
[6] = Acid and organic solution stability, HPLC-UV 250 nm; conditions: 5 mg/mL
Experimental: An HPLC-UV Vis method was developed using 0.1% Formic acid in water as mobile phase A and 0.1% Formic acid in acetonitrile as mobile Phase B. A gradient method was developed ramping from 10% A to 90% B over 8 minutes and then returning to 10% A at 8.5 minutes on a 4.6×50 mm Zorbax C-18 column. Injections of 10 uL of stability solutions were injected for analyte detection.
[…] Aliquots were collected at serial time points and then diluted to a nominal concentration of 100 ug/mL for injection to the HPLC and 250 nm monitored by the diode array detector. Data at approximately 10 days is presented.
Aliquots were collected at serial time points and then diluted to a nominal concentration of 100 ug/mL for injection to the HPLC and 250 nm monitored by the diode array detector.
(§3) It was also evaluated at 2 N HCl at 37° C. Aliquots were collected at serial time points and then diluted to a nominal concentration of 100 ug/mL for injection to the HPLC and 250 nm monitored by the diode array detector.
as §3, §3, §3

[7] = in solvent, exposed to light; known; cited from earlier work
[8] = 1000 ng/mL
Experimental: Plasma was collected by the biomaterial vendor and kept frozen at −20° C.
The samples were analyzed by HPLC separation and mass spectrometry detection for prodrug amount, relative to a baseline time 0 control sample. Triplicate samples were generated at each time point and the peak area response was averaged and converted to a percent of baseline control.

[9] = Rat PK at equimolar dose to Ezogabine (20 mg/kg) in 0.5% methylcellulose; conditions: male cannulated rats; equimolar to Ezogabine 20 mg/kg; 0.5% methylcellulose; analyte the dosed prodrug
Experimental: (§4) Blood samples were collected at the same time points over 24 hours to generate a concentration time profile. Two male rats were dosed per group. Plasma samples were analyzed by LC/MS/MS and the resulting concentration time profiles and PK parameters are provided.
as §4, §4

[10] = test system: formalin inflammatory model; test: Formalin inflammatory pain model (hind paw flick/lick); type: in vivo; conditions: male CD-1 mouse; 100 mg/kg SC 30 minutes before 5% formalin; both phases (0-10 and 15-40 min)
Experimental: Compound 4 was assessed in the […] formalin inflammatory model. The number of flicks/licks of a male CD-1 mouse in the acute phase 0-10 minute and the inflammatory phase from 15-40 min after intraplantar administration of 50 μL of 5% formalin was recorded. […] Data is presented over the duration of the observation periods in 2 minute bins.

[11] = Benchtop solvent stability exposed to light, HPLC-UV 230 nm, up to 7 days; type: physicochemical; conditions: over 4 days
Experimental: Compounds in solvent were left on the benchtop exposed to light for up to 7 days since it is known that Compound 1 will degrade with light within 3-7 days.
Stability was assessed by taking an aliquot from the solubility vials at each test day. A single replicate was injected for each test condition.
Samples were injected onto an HPLC system with an aqueous mobile phase and acetonitrile organic phase and compounds were separated on a C8 50×2 mm column. Wavelength 230 nm was monitored for absorption and integrated for peak area while the mass spectrometer was used to confirm mass. Samples were tested on Day 1 and on subsequent days through Day 7.

[12] = Solvent solubility assessment by visual inspection; type: physicochemical
Experimental: Compounds were weighed and placed into a 4 dram vials and solvents were added to the target concentration. Compounds were vortex and visually inspected for particulates and considered soluble if clear upon visual inspection with and without magnification. Solubility was reported as either greater than (>) or less than (<) from the prepared concentration. […] It was evaluated at 10 mg/mL in 0.1 N NaCl and was freely soluble. It was evaluate at 1 mg/mL in 0.1 N NaOH and 0.1 N Na2HPO4 and was freely soluble. In ethanol and methanol it was freely soluble at a concentration of 75 mg/mL. […] It was freely soluble at 75 mg/mL in methanol and ethanol. It was soluble at 1 mg/mL in 1N HCl.

[13] = test system: MES induced seizures in Rat; test: SD rat MES test after IM administration; type: in vivo; conditions: SD rats, IM 75 mg/kg
Experimental: All treatments were at 0.083, 0.25, 0.5, 1, 2, 4, and 8 hours prior to the administration of MES test, where 6 seconds where 6 seconds without a seizure was considered protected.

## CCOC(=O)Nc1ccc(NCc2ccc(F)cc2)cc1N [Compound 1, Ezogabine]
[1]; male SD rat, PO 20 mg/kg, analyte Cmpd 1
  Cmax/D: 44.8 ng/mL/mg/kg
[1]; male SD rat, PO 20 mg/kg, analyte Cmpd 1, 24 h
  AUClast/D: 280 ng·h/mL/mg/kg
[2]
  Cmax/D: 148 ng/mL/mg/kg
[2]; 6 h
  AUClast/D: 190 ng·h/mL/mg/kg
[3]
  Adverse reaction: abnormal coordination: 7%
  Adverse reaction: aphasia: 4%
  Adverse reaction: asthenia: 5%
  Adverse reaction: balance disorder: 4%
  Adverse reaction: blurred vision: 5%
  Adverse reaction: confusional state: 9%
  Adverse reaction: diplopia: 7%
  Adverse reaction: disturbance in attention: 6%
  Adverse reaction: dizziness: 23%
  Adverse reaction: dysarthria: 4%
  Adverse reaction: fatigue: 15%
  Adverse reaction: gait disturbance: 4%
  Adverse reaction: memory impairment: 6%
  Adverse reaction: somnolence: 22%
  Adverse reaction: tremor: 8%
  Adverse reaction: vertigo: 8%
Human Kv7.2/7.3
  EC50: 1.6 µM
[4]; Time 0
  % Conversion to dimer: 0%
  Concentration of dimer: 0.00 ng/mL
[4]; Time 1 h
  % Conversion to dimer: 0.250%
  Concentration of dimer: 19.5 ng/mL
[4]; Time 4 h
  % Conversion to dimer: 7.95%
  Concentration of dimer: 623 ng/mL
[4]; Time 8 h
  % Conversion to dimer: 25.2%
  Concentration of dimer: 1980 ng/mL
[4]; low pH (1 N HCl) and simulated gastric fluid
  Stability at low pH: degrades and forms a chromophore dimer
[5]; 0.1N NaCl
  Solubility: 0.04 mg/mL (≈ 0.132 mM)
[5]; 0.1N NaOH
  Solubility: 0.04 mg/mL (≈ 0.132 mM)
[5]; Ethanol
  Solubility: 20 mg/mL (≈ 65.9 mM)
[5]; Methanol
  Solubility: 54 mg/mL (≈ 178 mM)
[5]; Water
  Solubility: 0.05 mg/mL (≈ 0.165 mM)
[5]; listed as 0.1 Na2HPO4, determined in 0.1N K2HPO4
  Solubility: 0.18 mg/mL (≈ 0.593 mM)
[6]; 0.1N HCl, room temp., normal light, 267 h
  % Remaining: 50.7%
[6]; 1N HCl, room temp., normal light, 267 h
  % Remaining: 68.2%
[6]; Acetonitrile, room temp., normal light, 219 h
  % Remaining: 44.9%
[6]; Methanol, room temp., normal light, 267 h
  % Remaining: 41.3%
[6]; acid solutions, room temperature
  Colour of stability solution: turning light purple (indicating degradation) by Day 2
[6]; organic solvents, room temperature
  Colour of stability solution: did not begin turning purple until Day 7
[7]
  Time to degradation with light: 3 to 7 days

## CCOC(=O)Nc1ccc(NCc2ccc(F)cc2)cc1NC(=O)[C@@H](N)CCCCN [Compound 4]
[1]; rat, in vivo, po
  Exposure of the prodrug itself in systemic circulation: slightly more detectable
[8]; mouse
  Time by which prodrug is degraded in plasma: ≤ 6 h
[8]; rat, 6 h
  Plasma stability: stable through 6 hours
[8]; rat, plasma, 23 h
  Percent remaining in plasma: below 50%
Human Kv7.2/7.3; Human Kv7.2/7.3 cells, FluxOR fluorescence, 0.03 to 30 μM
  Activity against the primary target of Kv7.2/7.3: inactive
[9]
  AUClast/D: 6.26 ng·h/mL/mg/kg
  Cmax/D: 2.34 ng/mL/mg/kg
[10]
  Reduction in behavioral response (flicks/licks) compared to vehicle: 50%
[6]
  Colour of stability solution: remained clear and colorless through Day 18
[6]; 0.1N HCl, room temp., normal light, 269 h
  Ezogabine Area (formed from the prodrug): 0 mAU
[6]; 1N HCl, room temp., normal light, 269 h
  Ezogabine Area (formed from the prodrug): 0 mAU
[6]; 2N HCl 37C, 436 h
  Ezogabine Area (formed from the prodrug): 167 mAU
[6]; 2N HCl, room temp., normal light, 269 h
  Ezogabine Area (formed from the prodrug): 38 mAU
[6]; Methanol, room temp., normal light, 437 h
  Ezogabine Area (formed from the prodrug): 0 mAU
[6]; PBS, room temp., normal light, 435 h
  Ezogabine Area (formed from the prodrug): 0 mAU
[6]; acidic solutions and organic solvents, up to 3 weeks
  Degradation / conversion to ezogabine in solution: very little degradation to ezogabine
[6]; 437 h
  % Remaining: 98.5%
[6]; buffer, 435 h
  % Remaining: 99.2%
[6]; buffer, 436 h
  % Remaining: 94.9%
[11]; 0.1N NaOH
  Reduction in peak area: > 50%
[11]; all test conditions except 0.1 N NaOH
  Stability in solvent: appears stable
[12]; 0.1N HCl
  Solubility: >20 mg/mL
[12]; 0.1 N Na2HPO4, aqueous buffer, thermodynamic from solid, read-out: Solubility (freely soluble at tested concentration)
  Solubility: > 1 mg/mL
[12]; 0.1N NaCl
  Solubility: >10 mg/mL
[12]; 0.1 N NaCl, saline or isotonic, thermodynamic from solid, read-out: Solubility (freely soluble at tested concentration)
  Solubility: > 10 mg/mL
[12]; 0.1N NaOH
  Solubility: >1 mg/mL
[12]; 0.1 N NaOH, aqueous buffer, thermodynamic from solid, read-out: Solubility (freely soluble at tested concentration)
  Solubility: > 1 mg/mL
[12]; 0.1 Na2HPO4
  Solubility: >1 mg/mL
[12]; Ethanol
  Solubility: >75 mg/mL
[12]; Methanol
  Solubility: >75 mg/mL
[12]; Water
  Solubility: >20 mg/mL
[12]; ethanol, organic solvent or mixture, thermodynamic from solid, read-out: Solubility (freely soluble at tested concentration)
  Solubility: > 75 mg/mL
[12]; methanol, organic solvent or mixture, thermodynamic from solid, read-out: Solubility (freely soluble at tested concentration)
  Solubility: > 75 mg/mL
[12]; saline or isotonic, 0.9% w/v NaCl, for in vivo studies, read-out: Solubility (formulated as freely soluble solution)
  Solubility: ≥ 150 mg/mL
[12]; simulated gastric fluid, thermodynamic from solid, 0.1N HCl, read-out: Solubility (freely soluble at tested concentration)
  Solubility: > 20 mg/mL
[12]; water, thermodynamic from solid, read-out: Solubility (freely soluble at tested concentration)
  Solubility: > 20 mg/mL
[13]; 2 through 8 hours post dose
  Protection from MES induced seizures: fully protected
[13]; 1 h post dose
  Protection from MES induced seizures: almost fully protected
